Results as given in article PMC6277434, “Discovery of a potent HMG-CoA reductase degrader that eliminates statin-induced reductase accumulation and lowers cholesterol” (Nature Communications, 2018).
“And” between values parts separate entries of the source, which are not always exact repeats. Equal values may be shown once. Blank lines part the entries; values can stand above or below the compound they belong to.

How the values were obtained:
[1] = target: T1, HMGCR (Cricetulus griseus, UniProt P00347); assay: Immunoblotting of endogenous HMGCR protein in CHO-7 (or CHG) cells; assay type: cell-based, Chinese hamster; details: for endogenous HMGCR protein level (immunoblot), mean: CHG cells, DMSO = 100; for increase of HMGCR protein (maximum increment): statin 16 h, DMSO = 1
T1 construct: endogenous in cells; host or cells: CHO-7, CHG, SRD-13A, SRD-15
T1 sequence (P00347 1-887): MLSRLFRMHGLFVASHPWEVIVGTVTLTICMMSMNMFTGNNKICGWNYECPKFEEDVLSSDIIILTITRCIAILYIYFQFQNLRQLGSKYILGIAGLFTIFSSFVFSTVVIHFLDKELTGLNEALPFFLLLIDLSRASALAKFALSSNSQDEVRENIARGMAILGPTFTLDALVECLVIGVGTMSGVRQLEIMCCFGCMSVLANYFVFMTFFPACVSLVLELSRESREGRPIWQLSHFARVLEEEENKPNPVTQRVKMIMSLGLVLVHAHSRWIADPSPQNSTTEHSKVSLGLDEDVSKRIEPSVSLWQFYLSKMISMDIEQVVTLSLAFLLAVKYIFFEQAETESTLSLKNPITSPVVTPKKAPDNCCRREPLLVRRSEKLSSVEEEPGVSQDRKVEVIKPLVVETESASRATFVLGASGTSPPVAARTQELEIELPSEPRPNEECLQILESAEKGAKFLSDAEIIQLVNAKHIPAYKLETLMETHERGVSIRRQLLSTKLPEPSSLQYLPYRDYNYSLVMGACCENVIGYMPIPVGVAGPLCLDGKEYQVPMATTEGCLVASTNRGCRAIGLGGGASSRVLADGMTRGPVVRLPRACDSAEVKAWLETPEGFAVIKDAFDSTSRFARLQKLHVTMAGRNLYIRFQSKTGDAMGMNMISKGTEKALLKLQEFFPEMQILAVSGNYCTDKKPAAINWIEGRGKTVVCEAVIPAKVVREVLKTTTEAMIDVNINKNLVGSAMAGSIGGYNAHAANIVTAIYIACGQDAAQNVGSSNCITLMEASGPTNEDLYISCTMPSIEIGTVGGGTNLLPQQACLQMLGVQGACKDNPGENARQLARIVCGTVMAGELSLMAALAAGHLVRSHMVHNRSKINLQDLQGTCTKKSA
Description: CHO-7 (Chinese hamster ovary cell, a clone of CHO-K1 cell line selected for growth in LPDS) and Huh7 (a human hepatocellular carcinoma cell line), SRD-13A (a Scap-deficient CHO-7 cell line) and SRD-15 (an Insig-1 and Insig-2-deficient CHO-7 cell line) were generous gifts from Russell Debose-Boyd at UT Southwestern Medical Center, USA. All cells were grown in a monolayer at 37 °C with 5% CO2. Huh7 cells were maintained in medium A supplemented with 10% FBS. CHO-7 and SRD-15 cells were maintained in medium B supplemented with 5% FBS. SRD-13A cells were maintained in medium B with 5% FBS, 5 μg ml^−1 cholesterol, 1 mM sodium mevalonate, 10 μM sodium oleate. No cell lines used in this study were found in the database of commonly misidentified cell lines that is maintained by ICLAC and NCBI Biosample. The cell lines have not been authenticated recently. No test for mycoplasma contamination was performed.
(§1) Cells were harvested and homogenized in the RIPA buffer (50 mM Tris-HCl, pH 8.0, 150 mM NaCl, 2 mM MgCl2, 1.5% NP-40, 0.1% SDS, and 0.5% sodium deoxycholate) supplemented with protease cocktail inhibitor, 10 μM MG-132, 10 μg ml^−1 leupeptin and 1 mM phenylmethylsulfonyl fluoride. The protein concentrations of lysates were determined using BCA method (Beyotime). Samples were mixed with the membrane protein solubilization buffer (62.5 mM Tris-HCl, pH 6.8, 15% SDS, 8 M urea, 10% glycerol, and 100 mM DTT) plus the 4× loading buffer (150 mM Tris-HCl, pH 6.8, 12% SDS, 30% glycerol, 6% 2-mercaptoethanol, and 0.02% bromophenol blue) and incubated for 30 min at 37 °C. Proteins were resolved by SDS-PAGE and transferred to nitrocellulose membranes (GE Healthcare). Immnoblots were blocked with 5% non-fat milk in TBS containing 0.075% Tween-20 (TBST) and probed with indicated antibodies overnight at 4 °C. After washing in TBST for five times, blots were incubated with HRP-conjugated secondary antibodies for 2 h at room temperature. Immunoreactivity was developed with Clarity Western ECL chemiluminescent substrates (170–5061, Bio-Rad). Western blot images were captured by Amersham Imager 600 (GE Healthcare), and integrated optical intensities of each band were quantified by Image-Pro Plus 6 software (Media Cybernetics). Uncropped blots are shown in Supplementary Figs. 9–13.

[2] = system: LXR signaling pathway; assay: RT-qPCR of LXR target genes (SREBP-1c, ABCA1, ABCG8) in Huh-7 cells; assay type: cell-based, human; details: 16 h
Description: Cells were treated as described in corresponding figure legends, then total RNA was extracted from cells or mouse livers using TRI Reagent (T9424, Sigma-Aldrich). Equal amounts of RNA from cells or mice receiving the same treatment were pooled were used for cDNA synthesis with oligo dT and reverse transcriptase MLV (Promega). Gene expression was analyzed by quantitative real-time PCR on a Stratagene Mx30005PTM Q-PCR Systems. The primers used were listed in Supplementary Tables 2–4. […]
pathway. a-c Huh-7 cells were treated with indicated compounds for 16 h and then harvested for total RNA isolation and RT-qPCR. Cells treated with LXR agonist T0901317 w ere used as positive controls. The relative mRNA levels of SREBP -1c (a), ABCA1 (b) and ABCG8 (c) were quantified . GAPDH was the reference gene. The relative mRNA level in DMSO-treated cells was defined as 1. Data are from 3 independent experiments and presented as mean ± SD.
(1 picture or pasted object on this page, not shown here)

[3] = target: T2, HMGCR (TM1-8)-GFP (Cricetulus griseus, UniProt P00347)
T2 sequence (P00347 1-346): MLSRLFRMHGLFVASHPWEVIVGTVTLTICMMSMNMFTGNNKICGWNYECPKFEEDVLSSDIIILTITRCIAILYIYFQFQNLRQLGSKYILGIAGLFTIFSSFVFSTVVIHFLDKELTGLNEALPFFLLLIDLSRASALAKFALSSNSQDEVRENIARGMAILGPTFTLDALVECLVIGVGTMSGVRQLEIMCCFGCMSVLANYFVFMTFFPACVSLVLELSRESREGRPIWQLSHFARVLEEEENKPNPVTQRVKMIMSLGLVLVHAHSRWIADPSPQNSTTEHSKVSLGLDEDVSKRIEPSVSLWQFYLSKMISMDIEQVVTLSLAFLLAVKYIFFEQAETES

[4] = system: LXR signaling pathway; set-up: method as in earlier work; details: previous studies ref 2 (Yang, C. et al. J. Biol. Chem. 281, 27816-27826 (2006)); cited from earlier work
[5] = target: T2, HMGCR (TM1-8)-GFP; assay: HMGCR (TM1-8)-GFP fluorescent assay (high-content imaging) in CHG cells; details: 16 h; for HMGCR (TM1-8)-GFP fluorescent intensity, mean: DMSO-treated cells = 100
[6] = target: T2, HMGCR (TM1-8)-GFP; assay: Immunoblotting of overexpressed HMGCR (TM1-8)-GFP in CHG cells; assay type: cell-based, hamster; set-up: corresponding to the amino acids from 1 to 346 of hamster HMGCR; expressed in transfected cells; details: 16 h, DMSO = 100
Description: Fig. 2 A reporting system that measures HMGCR degradation. a Schematic of the HMGCR (TM1-8)-GFP fusion protein. […] Data are from three independent experiments and presented as mean ± SD. Source data are provided as a Source Data File.
as §1

[7] = system: Hmgcr mRNA; assay: RT-qPCR of Hmgcr mRNA in CHO-7 cells; assay type: cell-based, Chinese hamster; details: CHO-7 cells, statin 16 h (lovastatin up to 10 μM), DMSO = 1
Description: Cells were treated as described in corresponding figure legends, then total RNA was extracted from cells or mouse livers using TRI Reagent (T9424, Sigma-Aldrich). Equal amounts of RNA from cells or mice receiving the same treatment were pooled were used for cDNA synthesis with oligo dT and reverse transcriptase MLV (Promega). Gene expression was analyzed by quantitative real-time PCR on a Stratagene Mx30005PTM Q-PCR Systems. The primers used were listed in Supplementary Tables 2–4.

[8] = read-out: HMGCR (TM1-8)-GFP fluorescent intensity, mean

SMILES: CC(C)CCC[C@@H](C)[C@H]1CC[C@@]2(C)C3=C(CC[C@]12C)[C@@]1(C)CC[C@H](O)C(C)(C)[C@@H]1CC3 [24,25-DHL, 24,25-dihydrolanosterol, reference compound]
- endogenous HMGCR protein level (immunoblot), mean ([1]; 0.3 uM, 16 h): 73.3548
- endogenous HMGCR protein level (immunoblot), mean ([1]; 1 uM, 16 h): 35.9866
- endogenous HMGCR protein level (immunoblot), mean ([1]; 3 uM, 16 h): 7.195
- EC50 ([1]; CHO-7 cells, 16 h, read-out: EC50 to decrease endogenous HMGCR (dose–response immunoblotting)): 1.6 µM
- expression of LXR target genes (SREBP-1c, ABCA1 and ABCG8) mRNA [2]: did not activate the LXR target genes
- EC50 [3]: ~1.5 µM and 1.5 µM
- activation of LXR [4]: no effect
- HMGCR (TM1-8)-GFP fluorescent intensity, mean ([5]; 0.001 uM): 100
- HMGCR (TM1-8)-GFP fluorescent intensity, mean ([5]; 0.0078 uM): 100.168
- HMGCR (TM1-8)-GFP fluorescent intensity, mean ([5]; 0.023 uM): 100
- HMGCR (TM1-8)-GFP fluorescent intensity, mean ([5]; 0.078 uM): 97.2588
- HMGCR (TM1-8)-GFP fluorescent intensity, mean ([5]; 0.234 uM): 80.6542
- HMGCR (TM1-8)-GFP fluorescent intensity, mean ([5]; 2.34 uM): 45.713
- HMGCR (TM1-8)-GFP fluorescent intensity, mean ([5]; 15.6 uM): 10.4985
- HMGCR (TM1-8)-GFP fluorescent intensity, mean ([5]; 31.2 uM): 5
- overexpressed HMGCR (TM1-8)-GFP protein level (anti-GFP immunoblot), mean ([6]; 0.3 uM): 87.2697
- overexpressed HMGCR (TM1-8)-GFP protein level (anti-GFP immunoblot), mean ([6]; 1 uM): 51.2487
- overexpressed HMGCR (TM1-8)-GFP protein level (anti-GFP immunoblot), mean ([6]; 3 uM): 6.898

SMILES: CC(C)CCC[C@@H](C)[C@H]1CC[C@H]2[C@@H]3CC=C4C[C@@H](O)CC[C@]4(C)[C@H]3CC[C@]12C [Cholesterol]
- endogenous HMGCR protein level (immunoblot), mean ([1]; 1 uM, 16 h): 100.862
- endogenous HMGCR protein level (immunoblot), mean ([1]; 3 uM, 16 h): 95.8793
- endogenous HMGCR protein level (immunoblot), mean ([1]; 10 uM, 16 h): 57.8709
- DC50 [3]: ~30.4 µM and 30.4 µM
- remaining activity at 0.001 µM [5, 8]: 100%
- remaining activity at 0.01 µM [5, 8]: 100%
- remaining activity at 0.1 µM [5, 8]: 95.9%
- remaining activity at 0.3 µM [5, 8]: 88.9%
- remaining activity at 1 µM [5, 8]: 77.2%
- remaining activity at 3 µM [5, 8]: 66.6%
- remaining activity at 10 µM [5, 8]: 65.5%
- remaining activity at 20 µM [5, 8]: 58.9%
- remaining activity at 30 µM [5, 8]: 47%
- overexpressed HMGCR (TM1-8)-GFP protein level (anti-GFP immunoblot), mean ([6]; 1 uM): 93.1421
- overexpressed HMGCR (TM1-8)-GFP protein level (anti-GFP immunoblot), mean ([6]; 3 uM): 90.7374
- overexpressed HMGCR (TM1-8)-GFP protein level (anti-GFP immunoblot), mean ([6]; 10 uM): 74.0079

SMILES: CC(C)c1c(C(=O)Nc2ccccc2)c(-c2ccccc2)c(-c2ccc(F)cc2)n1CC[C@@H](O)C[C@@H](O)CC(=O)O [atorvastatin]
- increase of HMGCR protein (maximum increment) ([1]; CHO-7 cells): ~9 fold
- increase of Hmgcr mRNA abundance [7]: 1.8 fold

SMILES: CC(C)=CCC[C@@H](C)[C@H]1CC[C@@]2(C)C3=C(CC[C@]12C)[C@@]1(C)CC[C@H](O)C(C)(C)[C@@H]1CC3 [lanosterol]
- expression of LXR target genes (SREBP-1c, ABCA1 and ABCG8) mRNA [2]: did not activate the LXR target genes
- activation of LXR [4]: no effect

More lines, main results first:

- increase of HMGCR protein (maximum increment) ([1]; CHO-7 cells): ~11 fold
SMILES: CC(C)n1c(/C=C/C(O)CC(O)CC(=O)O)c(-c2ccc(F)cc2)c2ccccc21 (stereo not shown) [fluvastatin]
- increase of Hmgcr mRNA abundance [7]: 2.6 fold

- increase of HMGCR protein (maximum increment) ([1]; CHO-7 cells): ~12 fold
SMILES: CC[C@H](C)C(=O)O[C@H]1C[C@H](O)C=C2C=C[C@H](C)[C@H](CC[C@@H](O)C[C@@H](O)CC(=O)O)[C@H]21 [pravastatin]
- increase of Hmgcr mRNA abundance [7]: 2.4 fold

- increase of HMGCR protein (maximum increment) ([1]; CHO-7 cells): ~17 fold
SMILES: CC(C)c1nc(N(C)S(C)(=O)=O)nc(-c2ccc(F)cc2)c1/C=C/[C@@H](O)C[C@@H](O)CC(=O)O [rosuvastatin]
- increase of Hmgcr mRNA abundance [7]: 2.3 fold

- increase of HMGCR protein (maximum increment) ([1]; CHO-7 cells): ~ 15 fold
SMILES: CCC(C)(C)C(=O)O[C@H]1C[C@@H](C)C=C2C=C[C@H](C)[C@H](CC[C@@H]3C[C@@H](O)CC(=O)O3)[C@H]21 [simvastatin]
- increase of Hmgcr mRNA abundance [7]: 3.5 fold
